According to the supplement of paper PMC10331698:
± gives the standard deviation of the averaged measurements.

Key:
Assay in all cases: level (log10 ratio to DMSO vehicle control); higher = higher biomarker level / cell amount than vehicle control
Details in all cases: in DMSO
[1] = compound: COC(=O)C(F)(F)C(F)(F)OC(F)(C(F)(F)F)C(F)(F)OC(F)=C(F)F [Methyl perfluoro(3-(1-ethenyloxypropan-2-yloxy)propanoate)]
Protocol: (§1)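 BioMAP Diversity Plus panel of 12 human primary cell co-culture systems (3C, 4H, LPS, SAg, BT, BF4T, BE3C, CASM3C, HDF3CGF, KF3CT, MyoF, Mphg). Compounds were added 1 h before stimulation and left for 24 h (MyoF 48 h; BT 72 h for soluble read-outs or 6 d for IgG). Biomarkers were read by ELISA, cytotoxicity by SRB, PBMC viability and proliferation by Alamar Blue. Each well value was divided by the mean of 8 DMSO control wells on the same plate and log10 transformed; duplicate blinded samples were tested at 4 concentrations.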

[2] = compound: FC(F)(F)C(F)(F)C(F)(F)C(F)(F)C(F)(F)C(F)(F)CC1CO1 [3-(Perfluorohexyl)-1,2-epoxypropane]
Protocol: as §1

[3] = compound: FC(F)(F)C(F)(F)C(F)(F)CC1CO1 [1H,1H-Heptafluorobutyl epoxide]
Protocol: as §1

Heptafluorobutyl iodide = compound: FC(F)(F)C(F)(F)C(F)(F)CI [Heptafluorobutyl iodide]
Protocol: as §1

Nonafluoropentanamide = compound: NC(=O)C(F)(F)C(F)(F)C(F)(F)C(F)(F)F [Nonafluoropentanamide]
Protocol: as §1

[4] = compound: NC(=O)C(F)(F)C(F)(F)C(F)(F)C(F)F
Protocol: as §1

[5] = compound: O=C(O)C(F)(F)C(F)(F)C(F)(F)C(F)(F)C(F)(F)C(F)(F)C(F)(F)C(F)(F)C(F)(F)C(F)F [11-H-Perfluoroundecanoic acid]
Protocol: as §1

Row | Test System | level (log10) ([1]; 6700 nM) | level (log10) ([1]; 20000 nM) | level (log10) ([2]; 6700 nM) | level (log10) ([2]; 20000 nM) | level (log10) ([2]; 60000 nM) | level (log10) ([3]; 6700 nM) | level (log10) ([3]; 20000 nM) | level (log10) ([3]; 60000 nM) | level (log10) (Heptafluorobutyl iodide; 6700 nM) | level (log10) (Heptafluorobutyl iodide; 20000 nM) | level (log10) (Heptafluorobutyl iodide; 60000 nM) | level (log10) (Nonafluoropentanamide; 6700 nM) | level (log10) (Nonafluoropentanamide; 20000 nM) | level (log10) (Nonafluoropentanamide; 60000 nM) | level (log10) ([4]; 6700 nM) | level (log10) ([4]; 20000 nM) | level (log10) ([4]; 60000 nM) | level (log10) ([5]; 6700 nM) | level (log10) ([5]; 20000 nM)
1 | 3C:CCL2/MCP-1 | 0.0045 ± 0.0064 | 0.0175 ± 0.032 | 0.011 ± 0.02 | -0.004 ± 0.0014 | 0.021 ± 0.031 | 0.0005 ± 0.0064 | -0.011 ± 0.0071 | -0.0025 ± 0.023 | 0.014 ± 0.051 | -0.014 ± 0.041 | 0.007 ± 0.037 | -0.0045 ± 0.016 | -0.0125 ± 0.018 | 0.011 ± 0.058 | -0.01 ± 0.013 | -0.0135 ± 0.011 | 0.015 ± 0.042 | -0.0085 ± 0.0035 | 0 ± 0.017
2 | 3C:CD62E/E-Selectin | -0.034 ± 0.011 | -0.031 ± 0.013 | -0.035 ± 0.013 | -0.0375 ± 0.005 | -0.0415 ± 0.0078 | -0.011 ± 0.023 | 0.002 ± 0.013 | 0.0075 ± 0.0035 | -0.012 ± 0.024 | -0.0115 ± 0.0021 | -0.0165 ± 0.03 | -0.014 ± 0.025 | -0.017 ± 0.031 | 0.0085 ± 0.011 | -0.0055 ± 0.022 | -0.027 ± 0.0014 | -0.016 ± 0.018 | -0.0045 ± 0.025 | 0.0205 ± 0.013
3 | 3C:CD87/uPAR | 0.01 ± 0.041 | 0.031 ± 0.013 | 0.03 ± 0.0085 | 0.032 ± 0.0085 | 0.052 ± 0.017 | -0.0185 ± 0.026 | 0 ± 0.021 | -0.01 ± 0.0071 | -0.0375 ± 0.0092 | -0.05 ± 0.051 | -0.032 ± 0.041 | -0.037 ± 0.0085 | -0.018 ± 0.016 | -0.0095 ± 0.022 | -0.0235 ± 0.036 | -0.022 ± 0.03 | -0.023 ± 0.027 | -0.0065 ± 0.018 | 0.0045 ± 0.023
4 | 3C:CD106/VCAM-1 | -0.016 ± 0.0057 | -0.0235 ± 0.015 | -0.0145 ± 0.018 | -0.033 ± 0.025 | -0.0395 ± 0.011 | -0.0315 ± 0.023 | -0.0385 ± 0.013 | -0.012 ± 0.011 | -0.0115 ± 0.00071 | -0.0045 ± 0.028 | -0.0045 ± 0.0078 | -0.024 ± 0.028 | -0.0135 ± 0.039 | -0.016 ± 0.0071 | -0.001 ± 0.024 | 0.0135 ± 0.0021 | 0.007 ± 0.016 | -0.0105 ± 0.023 | -0.011 ± 0.0099
5 | 3C:CD141/Thrombomodulin | -0.036 ± 0.02 | -0.028 ± 0.034 | -0.0025 ± 0.028 | -0.0095 ± 0.00071 | -0.0075 ± 0.0035 | 0.0125 ± 0.053 | -0.034 ± 0.04 | -0.0575 ± 0.08 | -0.0335 ± 0.04 | -0.0305 ± 0.005 | -0.025 ± 0.014 | -0.0635 ± 0.074 | -0.0235 ± 0.0035 | -0.069 ± 0.051 | -0.0285 ± 0.074 | 0 ± 0.03 | -0.0075 ± 0.026 | -0.0065 ± 0.005 | -0.0255 ± 0.033
6 | 3C:CD142/Tissue Factor | 0.0415 ± 0.064 | 0.0255 ± 0.0064 | -0.042 ± 0.027 | -0.05 ± 0.028 | -0.0195 ± 0.029 | 0.034 ± 0.0071 | 0 ± 0.033 | 0.0075 ± 0.022 | -0.0315 ± 0.019 | 0.0095 ± 0.016 | -0.0155 ± 0.019 | -0.049 ± 0.041 | -0.0275 ± 0.04 | -0.067 ± 0.044 | -0.0025 ± 0.066 | 0.006 ± 0.033 | 0.0115 ± 0.036 | -0.011 ± 0.011 | -0.0245 ± 0.013
7 | 3C:CXCL8/IL-8 | 0.0075 ± 0.046 | 0.0485 ± 0.061 | -0.002 ± 0.0085 | -0.004 ± 0.0014 | 0.035 ± 0.042 | -0.0225 ± 0.019 | -0.019 ± 0.0057 | 0 ± 0.018 | -0.026 ± 0.018 | -0.0225 ± 0.019 | -0.0025 ± 0.04 | -0.001 ± 0.016 | -0.0145 ± 0.0092 | 0.0345 ± 0.04 | 0.0025 ± 0.016 | -0.007 ± 0.0042 | 0.012 ± 0.0099 | 0.012 ± 0.0014 | 0.011 ± 0.0071
8 | 3C:CXCL9/MIG | -0.0025 ± 0.012 | -0.0005 ± 0.00071 | 0.0065 ± 0.0064 | -0.011 ± 0.0071 | 0.013 ± 0.0099 | -0.005 ± 0.0071 | -0.0135 ± 0.0064 | -0.0035 ± 0.022 | -0.01 ± 0.0028 | -0.0095 ± 0.0021 | 0.0025 ± 0.0035 | -0.0005 ± 0.0021 | -0.0005 ± 0.021 | 0.0065 ± 0.012 | -0.0095 ± 0.011 | -0.012 ± 0.0014 | -0.0045 ± 0.0021 | -0.005 ± 0.0085 | -0.002
9 | 3C:Proliferation | -0.056 ± 0.048 | -0.111 ± 0.0092 | -0.013 ± 0.0042 | -0.0055 ± 0.054 | -0.0375 ± 0.035 | -0.0245 ± 0.028 | -0.015 ± 0.033 | 0.004 ± 0.035 | -0.0165 ± 0.00071 | 0.005 ± 0.023 | 0.014 ± 0.041 | 0.028 ± 0.018 | 0.016 ± 0.03 | -0.0145 ± 0.021 | -0.0385 ± 0.049 | -0.038 ± 0.061 | -0.03 ± 0.031 | -0.0185 ± 0.074 | 0.0405 ± 0.016
10 | 3C:SRB | 0.006 ± 0.0071 | 0.004 ± 0.0042 | 0.009 ± 0.0042 | 0.014 ± 0.0085 | 0.018 ± 0.0099 | 0.002 ± 0.035 | 0.0005 ± 0.018 | -0.0185 ± 0.0064 | -0.0045 ± 0.0064 | -0.0025 ± 0.012 | 0.0025 ± 0.021 | -0.002 ± 0.0042 | 0.0005 ± 0.0035 | -0.011 | -0.0075 ± 0.019 | -0.013 ± 0.0014 | -0.019 ± 0.023 | 0.0095 ± 0.012 | 0.01 ± 0.025
11 | 4H:CCL2/MCP-1 | -0.0055 ± 0.019 | 0.016 ± 0.064 | 0.03 ± 0.0099 | -0.0175 ± 0.0064 | 0.0125 ± 0.019 | -0.033 ± 0.013 | -0.018 ± 0.025 | 0.025 ± 0.042 | -0.007 ± 0.027 | -0.0215 ± 0.011 | -0.0265 ± 0.021 | -0.024 ± 0.017 | -0.017 | -0.004 ± 0.013 | -0.0155 ± 0.032 | -0.039 ± 0.031 | 0.029 ± 0.04 | -0.0625 ± 0.021 | -0.0615 ± 0.013
12 | 4H:CCL26/Eotaxin-3 | -0.001 ± 0.016 | -0.0425 ± 0.026 | -0.001 ± 0.011 | -0.001 ± 0.0028 | 0.005 ± 0.0057 | 0.0055 ± 0.0064 | -0.0365 ± 0.025 | 0.032 ± 0.062 | 0.0215 ± 0.023 | 0.0385 ± 0.023 | 0.0485 ± 0.032 | -0.0005 ± 0.0035 | 0.0195 ± 0.00071 | 0.066 ± 0.017 | 0.0095 ± 0.037 | 0.0315 ± 0.029 | 0.0275 ± 0.016 | -0.0435 ± 0.012 | -0.0535 ± 0.037
13 | 4H:CD62P/P-selectin | 0.0115 ± 0.079 | 0.0095 ± 0.073 | 0.0055 ± 0.016 | -0.0015 ± 0.019 | 0.013 ± 0.017 | -0.015 ± 0.0099 | -0.007 ± 0.0014 | 0.0455 ± 0.046 | -0.0515 ± 0.06 | -0.058 ± 0.061 | -0.0135 ± 0.053 | -0.0135 ± 0.043 | -0.0075 ± 0.029 | 0.0075 ± 0.05 | -0.017 | -0.017 ± 0.031 | 0.0195 ± 0.029 | 0.0165 ± 0.0092 | 0.035 ± 0.031
